Measured values taken from patent US6737383B1, “Herbicidal oxadiazolidines” (priority 1999, dated 2004).

Columns and labels:
[1] = system: Spanishneedles; assay: Test D Spanishneedles; assay type: in vivo, Bidens bipinnata; settings: Preemergence, 0 to 100 scale
Summary of the method: (§1)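 Values are visual plant-response ratings (0 no injury, 100 complete control) recorded 14 to 21 days after herbicide treatment, using a non-phytotoxic solvent mixture containing surfactant. Preemergence applications went to the surface of pots holding freshly sown seed in sandy loam.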

[2] = system: Green foxtail; assay: Test D green foxtail; assay type: in vivo; settings: Preemergence, 0 to 100 scale
Summary of the method: as §1

[3] = system: goosegrass; assay: Test D goosegrass; assay type: in vivo, Eleusine indica; settings: Preemergence, 0 to 100 scale
Summary of the method: as §1

[4] = system: large crabgrass; assay: Test D large crabgrass; assay type: in vivo, Digitaria sanguinalis; settings: Preemergence, 0 to 100 scale
Summary of the method: as §1

[5] = system: pitted morningglory; assay: Test D pitted morningglory; assay type: in vivo, Ipomoea lacunosa; settings: Preemergence, 0 to 100 scale
Summary of the method: as §1

[6] = system: sandbur; assay: Test D sandbur; assay type: in vivo, Cenchrus echinatus; settings: Preemergence, 0 to 100 scale
Summary of the method: as §1

[7] = system: itchgrass; assay: Test D itchgrass; assay type: in vivo, Rottboellia exaltata; settings: Preemergence, 0 to 100 scale
Summary of the method: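 Scoring used a 0–100 visual injury scale, with 0 meaning no effect and 100 complete control, assessed 14–21 days after application alongside untreated pots. Preemergence treatments went onto sandy loam surfaces of separately potted seeds within a day of sowing.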

[8] = system: dallisgrass; assay: Test D dallisgrass; assay type: in vivo, Paspalum dilatatum; settings: Preemergence, 0 to 100 scale
Summary of the method: as §1

[9] = system: common ragweed; assay: Test D common ragweed; assay type: in vivo, Ambrosia elatior; settings: Preemergence, 0 to 100 scale
Summary of the method: as §1

[10] = system: Green foxtail; assay: Test D green foxtail; assay type: in vivo
Summary of the method: as §1

[11] = system: Johnson grass; assay: Test D Johnson grass; assay type: in vivo, Sorghum halepense; settings: Preemergence, 0 to 100 scale
Summary of the method: as §1

[12] = system: Alexandergrass; assay: Test D Alexandergrass; assay type: in vivo, Brachiaria plantaginea; settings: Preemergence, 0 to 100 scale
Summary of the method: as §1

[13] = system: common groundsel; assay: Test D common groundsel; assay type: in vivo, Senecio vulgaris; settings: Preemergence, 0 to 100 scale
Summary of the method: as §1

[14] = system: tall mallow; assay: Test D tall mallow; assay type: in vivo, Malva sylvestris; settings: Preemergence, 0 to 100 scale
Summary of the method: as §1

[15] = system: purple nutsedge; assay: Test D purple nutsedge; assay type: in vivo, Cyperus rotundus; settings: Preemergence, 0 to 100 scale
Summary of the method: as §1

[16] = system: guineagrass; assay: Test D guineagrass; assay type: in vivo, Panicum maximum; settings: Preemergence, 0 to 100 scale
Summary of the method: as §1

[17] = system: surinam grass; assay: Test D surinam grass; assay type: in vivo, Brachiaria decumbens; settings: Preemergence, 0 to 100 scale
Summary of the method: as §1

[18] = Rate 16 g/ha, 0 no injury, 100 complete control
[19] = Rate 32 g/ha, 0 no injury, 100 complete control
[20] = Rate 64 g/ha, 0 no injury, 100 complete control
[21] = Rate 125 g/ha, 0 no injury, 100 complete control
[22] = Rate 64 g/ha, Preemergence; 0 to 100 scale, 0 no injury, 100 complete control
[23] = Rate 125 g/ha, Preemergence; 0 to 100 scale, 0 no injury, 100 complete control

SMILES: Cc1cccc(C)c1-n1c(=O)on(C(=O)N(c2ccccc2)C(C)C)c1=O [Compound 46]
- Plant response rating, Spanishneedles [1, 18]: 0
- Plant response rating, Spanishneedles [1, 19]: 0
- Spanishneedles plant response rating [1, 20]: 0
- Spanishneedles plant response rating [1, 21]: 10
- Plant response rating, Spanishneedles ([1]; Rate 500 g/ha): 20
- Plant response rating, Green foxtail ([2]; Rate 250 g/ha): 100
- Plant response rating, Green foxtail ([2]; Rate 500 g/ha): 100
- Plant response rating, Goosegrass [3, 18]: 0
- Plant response rating, Goosegrass [3, 19]: 20
- Plant response rating, Goosegrass [3, 20]: 75
- Plant response rating, Goosegrass [3, 21]: 85
- Plant response rating, Goosegrass ([3]; Rate 250 g/ha): 98
- Plant response rating, Goosegrass ([3]; Rate 500 g/ha): 100
- Plant response rating, Large crabgrass [4, 18]: 0
- Plant response rating, Large crabgrass [4, 19]: 20
- Plant response rating, Large crabgrass [4, 20]: 40
- Plant response rating, Large crabgrass [4, 21]: 98
- Plant response rating, Large crabgrass ([4]; Rate 250 g/ha): 100
- Plant response rating, Large crabgrass ([4]; Rate 500 g/ha): 100
- Plant response rating, P. morninglory [5, 18]: 0
- Plant response rating, P. morninglory [5, 19]: 0
- Plant response rating, P. morninglory [5, 20]: 0
- Plant response rating, P. morninglory [5, 21]: 0
- Plant response rating, P. morninglory ([5]; Rate 250 g/ha): 0
- Plant response rating, P. morninglory ([5]; Rate 500 g/ha): 0
- Plant response rating, Sandbur [6, 18]: 0
- Plant response rating, Sandbur [6, 19]: 0
- Sandbur plant response rating [6, 20]: 0
- Sandbur plant response rating [6, 21]: 0
- Plant response rating, Sandbur ([6]; Rate 250 g/ha): 0
- Plant response rating, Sandbur ([6]; Rate 500 g/ha): 0
- Plant response rating, Itchgrass [7, 18]: 0
- Plant response rating, Itchgrass [7, 19]: 0
- Plant response rating, Itchgrass [7, 20]: 0
- Plant response rating, Itchgrass [7, 21]: 0
- Plant response rating, Itchgrass ([7]; Rate 250 g/ha): 0
- Plant response rating, Itchgrass ([7]; Rate 500 g/ha): 10
- Plant response rating, Dallisgrass [8, 18]: 20
- Plant response rating, Dallisgrass [8, 19]: 40
- Plant response rating, Dallisgrass [8, 20]: 40
- Plant response rating, Dallisgrass [8, 21]: 100
- Plant response rating, Dallisgrass ([8]; Rate 250 g/ha): 100
- Plant response rating, Dallisgrass ([8]; Rate 500 g/ha): 100
- Plant response rating, C. ragweed [9, 18]: 0
- Plant response rating, C. ragweed [9, 19]: 0
- Plant response rating, C. ragweed [9, 20]: 0
- Plant response rating, C. ragweed [9, 21]: 0
- Plant response rating, C. ragweed ([9]; Rate 250 g/ha): 0
- Plant response rating, C. ragweed ([9]; Rate 500 g/ha): 0
- Plant response rating, Green foxtail ([10]; Preemergence; Rate 16 g/ha; 0 to 100 scale, 0 no injury, 100 complete control): 0
- Plant response rating, Green foxtail ([10]; Preemergence; Rate 32 g/ha; 0 to 100 scale, 0 no injury, 100 complete control): 0
- Plant response rating, Green foxtail ([10]; Rate 16 g/ha; Preemergence; 0 to 100 scale, 0 no injury, 100 complete control): 0
- Plant response rating, Green foxtail ([10]; Rate 32 g/ha; Preemergence; 0 to 100 scale, 0 no injury, 100 complete control): 75
- Green foxtail plant response rating [10, 22]: 30
- Plant response rating, Green foxtail [10, 22]: 30
- Green foxtail plant response rating [10, 23]: 40
- Plant response rating, Green foxtail [10, 23]: 40
- Plant response rating, Green foxtail ([10]; Rate 250 g/ha; Preemergence; 0 to 100 scale): 100
- Plant response rating, Green foxtail ([10]; Rate 500 g/ha, Preemergence; 0 to 100 scale): 100
- Plant response rating, Johnsongrass [11, 18]: 0
- Plant response rating, Johnsongrass [11, 19]: 0
- Plant response rating, Johnsongrass [11, 20]: 0
- Plant response rating, Johnsongrass [11, 21]: 40
- Plant response rating, Johnsongrass ([11]; Rate 250 g/ha): 40
- Plant response rating, Johnsongrass ([11]; Rate 500 g/ha): 60
- Plant response rating, Alexandergrass [12, 18]: 0
- Plant response rating, Alexandergrass [12, 19]: 0
- Plant response rating, Alexandergrass [12, 20]: 40
- Plant response rating, Alexandergrass [12, 21]: 65
- Plant response rating, Alexandergrass ([12]; Rate 250 g/ha): 75
- Plant response rating, Alexandergrass ([12]; Rate 500 g/ha): 80
- Plant response rating, Com. groundsel [13, 18]: 0
- Plant response rating, Com. groundsel [13, 19]: 0
- Plant response rating, Com. groundsel [13, 20]: 0
- Plant response rating, Com. groundsel [13, 21]: 0
- Plant response rating, Com. groundsel ([13]; Rate 250 g/ha): 0
- Plant response rating, Com. groundsel ([13]; Rate 500 g/ha): 0
- Plant response rating, Tall Mallow [14, 18]: 0
- Plant response rating, Tall Mallow [14, 19]: 0
- Tall Mallow plant response rating [14, 20]: 0
- Tall Mallow plant response rating [14, 21]: 10
- Plant response rating, Tall Mallow ([14]; Rate 250 g/ha): 10
- Plant response rating, Tall Mallow ([14]; Rate 500 g/ha): 10
- Plant response rating, Purple nutsedge [15, 18]: 0
- Plant response rating, Purple nutsedge [15, 19]: 0
- Purple nutsedge plant response rating [15, 20]: 0
- Purple nutsedge plant response rating [15, 21]: 0
- Plant response rating, Purple nutsedge ([15]; Rate 250 g/ha): 0
- Plant response rating, Purple nutsedge ([15]; Rate 500 g/ha): 0
- Plant response rating, Guineagrass [16, 18]: 0
- Plant response rating, Guineagrass [16, 19]: 0
- Plant response rating, Guineagrass [16, 20]: 30
- Plant response rating, Guineagrass [16, 21]: 30
- Plant response rating, Guineagrass ([16]; Rate 250 g/ha): 65
- Plant response rating, Guineagrass ([16]; Rate 500 g/ha): 85
- Plant response rating, Surinam grass [17, 18]: 0
- Plant response rating, Surinam grass [17, 19]: 0
- Surinam grass plant response rating [17, 20]: 0
- Surinam grass plant response rating [17, 21]: 0
- Plant response rating, Surinam grass ([17]; Rate 250 g/ha): 10
- Plant response rating, Surinam grass ([17]; Rate 500 g/ha): 30
